Experimental data taken from EP4737448A1, “SARM1 ENZYME ACTIVITY INHIBITOR AND USE THEREOF” (Artivila (ShenZhen) Innovation Center, Ltd., priority 2023, dated 2025).

Key:
[1] = test system: axons of dorsal root ganglia explants; test: Wallerian degeneration assay of axon in mouse DRG explant culture; type: cell-based, C57BL/6 mice; details: 10 µM compound, 2 h pretreatment, 24 h post axonal transection
Description: Dorsal root ganglia were dissected from two-month-old male C57BL/6 mice and placed into a 35-mm culture dish containing ice-cold HBSS buffer. Extra tissue surrounding each dorsal ganglion was removed using a scalpel, and the ganglia were cut into 2-3 explant pieces. These explants were seeded into wells of a 96-well plate pre-coated with 100 ng/mL Matrigel (Corning), added with 100 µL of DRG medium (Neurobasal medium (Gibco) containing 2% B-27 (Gibco), 1% GlutaMAX (Gibco) and 10 ng/mL NGF (MCE)), and cultured in a 37°C incubator for one week. The medium was half- replaced on the fourth day and the experiments were counted on the eighth day.
Refer to methods reported in literatures in the related art (Gerdts J, Sasaki Y, Vohra B, Marasa J, Milbrandt J. Image-based screening identifies novel roles for IkappaB kinase and glycogen synthase kinase 3 in axonal degeneration. J Biol Chem. 2011 Aug 12;286(32):28011-8) for the definition and measurement principle of the degeneration index of axon. In the present disclosure, the measurement method is detaild below.
0.1 µL of 10 mM compound to be tested was added to 100 µL of DRG medium to prepare a new medium containing 10 µM compound to be tested. The medium in the 96-well plate was removed and replaced with the new medium containing the compound to be tested. Explant pieces of dorsal ganglia were incubated with compounds in a 37°C incubator for 2 h of pre-protection. Following this 2-hour pretreatment, axons were transcted near the explants tissue piece using a glass microelectrode. At 0 h and 24 h post axonal transection, brightfield images of axons in the same region were captured using a microscope (Olympus) with 20× objective. Axonal integrity was assessed using an in-house developed script. The results were categorized based on the degree of protection into: (A) >50% and (B) 20-50%.

[2] = target: T1, SARM1 (Homo sapiens, UniProt Q6SZW1); test: In vitro biochemical assay for inhibiting SARM1 enzymatic activity (PC6 fluorescence, NAD substrate, NMN activator); details: 0.05 µg/mL SARM1, 50 µM NAD, 50 µM PC6, 50 µM NMN, 10 min pre-incubation, 30 min at room temperature
T1 construct: the inventor produces full-length SARM1 for NADase activity assays and for screening; His (C); made in house; host or cells: HEK293 cells (transient transfection; digitonin lysate supernatant, not purified further)
T1 sequence (Q6SZW1 28-724): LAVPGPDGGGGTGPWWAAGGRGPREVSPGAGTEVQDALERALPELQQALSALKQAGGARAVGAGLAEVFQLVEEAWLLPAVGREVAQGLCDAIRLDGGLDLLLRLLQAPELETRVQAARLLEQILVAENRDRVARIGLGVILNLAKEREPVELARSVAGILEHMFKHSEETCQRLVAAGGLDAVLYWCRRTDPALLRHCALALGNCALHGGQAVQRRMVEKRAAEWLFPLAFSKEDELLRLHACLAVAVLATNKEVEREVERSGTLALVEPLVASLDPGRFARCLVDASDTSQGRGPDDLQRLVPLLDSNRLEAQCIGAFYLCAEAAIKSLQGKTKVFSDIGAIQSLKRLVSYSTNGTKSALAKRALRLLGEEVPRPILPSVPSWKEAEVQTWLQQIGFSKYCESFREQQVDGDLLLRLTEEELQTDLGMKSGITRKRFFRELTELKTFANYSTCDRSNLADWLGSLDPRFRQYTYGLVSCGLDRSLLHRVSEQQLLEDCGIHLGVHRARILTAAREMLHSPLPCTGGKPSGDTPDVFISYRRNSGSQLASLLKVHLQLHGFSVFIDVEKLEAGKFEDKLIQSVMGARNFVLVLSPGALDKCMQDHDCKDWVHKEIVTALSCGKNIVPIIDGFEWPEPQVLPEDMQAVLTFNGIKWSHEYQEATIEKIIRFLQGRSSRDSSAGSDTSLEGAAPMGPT
Description: Compounds to be tested were stocked at 200 µM or 10 mM (in DMSO), and further diluted to the desired compound concentration for the in vitro SARM1 enzyme assay and inhibitor screening.
The gene sequence encoding SARM1 protein was amplified by PCR and the PCR amplification product was constructed into the pcDNA3.1-HIS-C plasmid. This construction was completed by YouBio Biological Technology (Hunan, China).
HEK293 cells were cultured in DMEM in a 10 cm dish. The next day, cells were transfected with 15 µg of the pcDNA3.1-SARM1-HIS-C expression plasmid.
Cells were harvested 48 hours after the transfection. The SARM1 protein expressed in cells was obtained through cell lysis by digitonin, which was used for in vitro activity assay. The specific process was as follows:
Cells were digested and detached from the dish using trypsin-EDTA, centrifuged at 1000 rpm for 5 minutes, washed once with PBS, then resuspended in PBS containing 100 µM digitonin at 0.6 mL PBS for the cells in 10 cm dish and lysed for 5 min. The cells were added with trypan blue and observed under a microscope. More than 90% of the cells were confirmed to be lysed. The cells were centrifuged at 5000 rpm for 10 min, and the supernatant containing SARM1 protein was collected.
The compound was added into a solution of 50 mM Tris-HCl (pH 7.5) containing 0.05 µg/mL SARM1 to achieve a concentration of 200 µM, and then serially diluted 6 times, where each dilution was carried out by taking half of the previous solution and adding an equal volume of 50 mM Tris-HCl (pH 7.5) containing 0.05 µg/mL SARM1, yielding a set of final concentrations of the compound of either 200, 100, 50, 25, 12.5, 6.25 and 3.125 µM, or 200, 50, 12.5, 3.125, 0.78, 0.195 and 0.049 µM. No inhibitor was added in the control group. All mixtures were incubated at room temperature for 10 min.
Subsequently, 50 µM NAD, 50 µM PC6 as substrate and 50 µM NMN as activator were added to the SARM1 protein incubated with the inhibitor and reacted for 30 min at room temperature. Wherein, the aforementioned concentrations of each component represent their respective final concentrations in the reaction system
During the reaction, the fluorescence spectrum dynamics of PC6 was detected by a microplate reader, with excitation and emission wavelengths set at 390 nm and 520 nm, respectively. The activity of the protein was expressed as the reaction rate and half maximal inhibitory concentration was calculated. The higher the reaction rate, the stronger the protein activity, and the lower the inhibitory efficiency of the compound.
Dose-response curves for inhibition of SARM1 enzymatic activity for NAD by the compounds were plotted using the above method.

Structure (SMILES) | Degree of protection against axonal Wallerian Degeneration [1] | IC50 [2]
O=C1C(Cc2ccc(Cl)cc2)CCN1c1ccc(-c2ccncc2)nc1 (stereo not shown) [Compound 7] | A ((A) >50%) | 1000 to 10000 nM
O=C1C(Cc2cc(F)cc(F)c2)CCN1c1ccc(-c2ccncc2)cc1 (stereo not shown) [Compound 33, 3-(3,5-difluorobenzyl)-1-(4-(pyridin-4-yl)phenyl)pyrrolidin-2-one] | A ((A) >50%) | 1000 to 10000 nM
O=C1C(Cc2ccccc2)CCN1c1ccc(-c2ccncc2)nn1 (stereo not shown) [Compound 65] | B ((B) 20-50%) | < 1000 nM
O=C1C(Cc2ccc(Cl)cc2)CCCN1c1ccc(-c2ccncc2)nn1 (stereo not shown) [Compound 53, 3-(4-chlorobenzyl)-1-(6-(pyridin-4-yl)pyridazin-3-yl)piperidin-2-one] | B ((B) 20-50%) | < 1000 nM
O=C1C(Cc2ccc(Cl)cc2)CCN1c1ccc(-c2ccncc2Cl)cc1 (stereo not shown) [Compound 34, 3-(4-chlorobenzyl)-1-(4-(3-chloropyridin-4-yl)phenyl)pyrrolidin-2-one] | A ((A) >50%) | < 1000 nM
S=C1C(Cc2ccc(Cl)cc2)CCN1c1ccc(-c2ccncc2)nn1 (stereo not shown) [Compound 58, 3-(4-chlorobenzyl)-1-(6-(pyridin-4-yl)pyridazin-3-yl)pyrrolidin-2-thione] | B ((B) 20-50%) | < 1000 nM
O=C1C(Cc2ccc(Cl)cc2)CCN1c1ccc(-c2ccncc2F)nn1 (stereo not shown) [Compound 75, 3-(4-chlorobenzyl)-1-(6-(3-fluoropyridin-4-yl)pyridazin-3-yl)pyrrolidin-2-one] | A ((A) >50%) | < 1000 nM
O=C1[C@H](Cc2ccc(F)c(F)c2)CCN1c1ccc(-c2ccncc2)cc1 (single isomer, unassigned) [Compound 82] | A ((A) >50%) | < 1000 nM
O=C1C(Cc2ccc(F)c(F)c2)CCN1c1ccc(-c2ccncc2)nn1 (stereo not shown) [Compound 67] | A ((A) >50%) | < 1000 nM
O=C1C(Cc2ccc(Cl)cc2F)CCN1c1ccc(-c2ccncc2)nn1 (stereo not shown) [Compound 69] | B ((B) 20-50%) | < 1000 nM
O=C1C(Cc2ccc(Cl)cc2)CCN1c1ccc(-c2ccncc2Cl)nn1 (stereo not shown) [Compound 76, 3-(4-chlorobenzyl)-1-(6-(3-chloropyridin-4-yl)pyridazin-3-yl)pyrrolidin-2-one] | B ((B) 20-50%) | < 1000 nM
O=C1N(c2ccc(-c3ccncc3)cc2)CCC1(O)Cc1ccc(F)c(F)c1 (stereo not shown) [Compound 84, 3-(3,4-difluorobenzyl)-3-hydroxy-1-(4-(pyridin-4-yl)phenyl)pyrrolidin-2-one] | B ((B) 20-50%) | 1000 to 10000 nM
O=C1C(Cc2ccc(Cl)cc2)CON1c1ccc(-c2ccncc2)cc1 (stereo not shown) [Compound 3, 4-(4-chlorobenzyl)-2-(4-(pyridin-4-yl)phenyl)isoxazolidin-3-one] | B ((B) 20-50%) | < 1000 nM
O=C1C(Cc2ccc(F)cc2)CCN1c1ccc(-c2ccncc2)cc1 (stereo not shown) [Compound 15, 3-(4-fluorobenzyl)-1-(4-(pyridin-4-yl)phenyl)pyrrolidin-2-one] | B ((B) 20-50%) | 1000 to 10000 nM
